From ChEMBL document CHEMBL4425144, “Discovery and Structural Optimization of N5-Substituted 6,7-Dioxo-6,7-dihydropteridines as Potent and Selective Epidermal Growth Factor Receptor (EGFR) Inhibitors against L858R/T790M Resistance Mutation” (J Med Chem, 2016)
≈ marks a conversion by molar mass, not a printed value. Calls of active or inactive are those of the source. No cut-off for these calls is given here.

Legend:
[1] = Half life in ICR mouse at 10 mg/kg, po by LC-MS/MS method; format: ADME, organism-based; details: in vivo
[2] = AUC (0 to t) in ICR mouse at 10 mg/kg, po by LC-MS/MS method; format: ADME, organism-based; details: in vivo
[3] = target: T1, Epidermal growth factor receptor (Homo sapiens, UniProt P00533); experiment: Inhibition of EGF-induced EGFR kinase domain phosphorylation in human NCI-H1975 cells at 1000 nM pre-incubated for 2 hrs followed by stimulation with EGF for 15 mins by Western blot method; format: cell-based
T1 sequence (P00533 whole entry, the tested form may be a part): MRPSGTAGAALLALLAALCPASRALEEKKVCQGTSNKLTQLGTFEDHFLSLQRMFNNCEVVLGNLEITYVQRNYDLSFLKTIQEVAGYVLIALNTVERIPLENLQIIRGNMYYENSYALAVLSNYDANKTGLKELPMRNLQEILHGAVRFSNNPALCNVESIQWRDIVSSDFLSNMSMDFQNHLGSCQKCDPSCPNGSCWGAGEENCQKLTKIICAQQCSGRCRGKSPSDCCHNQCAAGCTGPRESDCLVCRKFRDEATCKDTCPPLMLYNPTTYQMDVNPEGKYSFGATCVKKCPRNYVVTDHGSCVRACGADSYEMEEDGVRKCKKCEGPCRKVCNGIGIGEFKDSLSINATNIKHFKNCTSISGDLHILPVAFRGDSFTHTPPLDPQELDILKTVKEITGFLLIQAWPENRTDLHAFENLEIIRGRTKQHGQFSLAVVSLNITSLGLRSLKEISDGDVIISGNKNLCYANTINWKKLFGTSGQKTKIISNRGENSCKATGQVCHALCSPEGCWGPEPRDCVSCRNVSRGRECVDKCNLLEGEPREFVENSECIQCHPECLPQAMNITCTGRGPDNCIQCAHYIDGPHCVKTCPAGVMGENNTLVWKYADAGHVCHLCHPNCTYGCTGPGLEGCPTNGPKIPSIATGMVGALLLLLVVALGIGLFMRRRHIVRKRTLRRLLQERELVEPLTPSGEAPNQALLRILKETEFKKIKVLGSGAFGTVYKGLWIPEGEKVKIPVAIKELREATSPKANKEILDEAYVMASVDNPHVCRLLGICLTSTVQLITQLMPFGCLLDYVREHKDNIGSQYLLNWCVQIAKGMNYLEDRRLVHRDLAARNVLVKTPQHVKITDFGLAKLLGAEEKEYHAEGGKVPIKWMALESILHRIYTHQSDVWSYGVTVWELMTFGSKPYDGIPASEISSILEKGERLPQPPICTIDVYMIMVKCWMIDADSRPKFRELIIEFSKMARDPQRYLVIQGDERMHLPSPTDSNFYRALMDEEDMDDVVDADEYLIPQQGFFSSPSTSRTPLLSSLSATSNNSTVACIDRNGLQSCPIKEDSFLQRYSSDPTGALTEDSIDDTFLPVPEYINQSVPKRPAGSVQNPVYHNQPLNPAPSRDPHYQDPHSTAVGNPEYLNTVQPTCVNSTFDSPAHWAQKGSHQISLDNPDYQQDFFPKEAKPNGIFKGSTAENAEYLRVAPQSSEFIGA

[4] = target: Receptor tyrosine-protein kinase erbB-2 (Homo sapiens) (UniProt P04626); experiment: Inhibition of human ERBB2 expressed in mammalian system assessed as remaining enzyme activity at 1000 nM relative to untreated control
Chain of Receptor tyrosine-protein kinase erbB-2 (Homo sapiens) (P04626 whole entry): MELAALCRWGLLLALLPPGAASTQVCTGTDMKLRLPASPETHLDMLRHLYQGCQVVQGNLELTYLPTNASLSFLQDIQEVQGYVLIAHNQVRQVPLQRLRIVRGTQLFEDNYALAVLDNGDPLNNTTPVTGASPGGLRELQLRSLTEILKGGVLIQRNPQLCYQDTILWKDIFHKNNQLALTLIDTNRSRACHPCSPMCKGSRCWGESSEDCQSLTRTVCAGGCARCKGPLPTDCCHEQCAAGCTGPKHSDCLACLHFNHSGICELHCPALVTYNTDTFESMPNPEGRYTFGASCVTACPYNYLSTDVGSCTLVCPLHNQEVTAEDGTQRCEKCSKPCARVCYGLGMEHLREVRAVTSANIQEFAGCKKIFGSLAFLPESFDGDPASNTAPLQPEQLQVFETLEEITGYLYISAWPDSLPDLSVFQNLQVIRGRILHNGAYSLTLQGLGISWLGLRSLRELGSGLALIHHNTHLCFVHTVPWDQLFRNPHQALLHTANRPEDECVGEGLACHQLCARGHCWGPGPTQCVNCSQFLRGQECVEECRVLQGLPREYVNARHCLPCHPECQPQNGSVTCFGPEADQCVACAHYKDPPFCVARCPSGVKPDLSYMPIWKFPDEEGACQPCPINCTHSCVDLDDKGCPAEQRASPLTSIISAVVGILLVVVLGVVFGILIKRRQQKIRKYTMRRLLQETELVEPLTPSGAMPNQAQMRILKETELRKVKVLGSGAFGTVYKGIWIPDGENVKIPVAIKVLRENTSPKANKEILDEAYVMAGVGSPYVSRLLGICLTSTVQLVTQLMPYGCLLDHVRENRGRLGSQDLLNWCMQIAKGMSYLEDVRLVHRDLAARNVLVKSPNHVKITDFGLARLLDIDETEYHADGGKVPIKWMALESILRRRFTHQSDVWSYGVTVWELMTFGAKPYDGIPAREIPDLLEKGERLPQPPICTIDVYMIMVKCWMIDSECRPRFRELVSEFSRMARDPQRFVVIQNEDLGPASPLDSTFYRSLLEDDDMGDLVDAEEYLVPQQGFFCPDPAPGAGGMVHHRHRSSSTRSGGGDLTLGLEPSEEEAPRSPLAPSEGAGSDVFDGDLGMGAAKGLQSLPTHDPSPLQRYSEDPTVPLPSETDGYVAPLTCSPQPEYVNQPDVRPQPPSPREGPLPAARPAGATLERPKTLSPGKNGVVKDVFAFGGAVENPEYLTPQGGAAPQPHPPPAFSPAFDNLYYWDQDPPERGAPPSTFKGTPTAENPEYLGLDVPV

[5] = Half life in mouse liver microsomes at 1 uM in presence of NADPH by LC-MS/MS method; format: ADME, Microsome
[6] = target: Calcium/calmodulin-dependent protein kinase type 1 (Homo sapiens) (UniProt Q14012); experiment: Inhibition of human CAMK1 expressed in bacterial system assessed as remaining enzyme activity at 1000 nM relative to untreated control
Chain of Calcium/calmodulin-dependent protein kinase type 1 (Homo sapiens) (Q14012 whole entry, looked up): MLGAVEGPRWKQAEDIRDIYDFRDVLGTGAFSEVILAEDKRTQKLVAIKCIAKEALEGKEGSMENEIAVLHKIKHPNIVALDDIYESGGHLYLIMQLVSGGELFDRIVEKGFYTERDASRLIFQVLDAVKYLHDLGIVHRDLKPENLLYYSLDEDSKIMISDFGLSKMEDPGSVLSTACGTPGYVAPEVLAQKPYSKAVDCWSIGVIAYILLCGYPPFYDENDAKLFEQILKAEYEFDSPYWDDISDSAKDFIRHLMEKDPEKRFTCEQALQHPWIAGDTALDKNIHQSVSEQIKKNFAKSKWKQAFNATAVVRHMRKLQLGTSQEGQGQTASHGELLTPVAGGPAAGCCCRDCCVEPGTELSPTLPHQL

[7] = target: T2, Tyrosine-protein kinase TXK (Homo sapiens) (UniProt P42681); experiment: Inhibition of human TXK expressed in bacterial system assessed as remaining enzyme activity at 1000 nM relative to untreated control
T2 sequence (whole entry): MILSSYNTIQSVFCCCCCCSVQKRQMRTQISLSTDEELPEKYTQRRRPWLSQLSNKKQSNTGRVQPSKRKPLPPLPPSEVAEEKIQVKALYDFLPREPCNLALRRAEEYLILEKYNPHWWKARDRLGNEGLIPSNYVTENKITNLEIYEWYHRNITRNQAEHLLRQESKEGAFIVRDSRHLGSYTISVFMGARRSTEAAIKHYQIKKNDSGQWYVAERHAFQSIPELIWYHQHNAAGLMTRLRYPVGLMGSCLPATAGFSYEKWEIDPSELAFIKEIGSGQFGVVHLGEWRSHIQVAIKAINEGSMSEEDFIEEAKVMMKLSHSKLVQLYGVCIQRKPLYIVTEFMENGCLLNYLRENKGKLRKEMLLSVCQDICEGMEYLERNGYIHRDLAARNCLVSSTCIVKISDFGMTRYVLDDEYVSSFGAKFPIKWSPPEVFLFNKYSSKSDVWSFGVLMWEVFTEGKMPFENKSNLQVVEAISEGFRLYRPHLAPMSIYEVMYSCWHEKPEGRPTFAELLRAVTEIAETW

[8] = Oral bioavailability in ICR mouse at 10 mg/kg by LC-MS/MS method; format: ADME, organism-based; details: in vivo
[9] = Cmax in ICR mouse at 10 mg/kg, po by LC-MS/MS method; format: ADME, organism-based; parameters: dose 10 mg/kg, route oral; details: in vivo
[10] = Toxicity in human NCI-H1975 cells xenografted BALB/c mouse assessed as mouse mortality at 50 mg/kg, po qd for 14 consecutive days; format: organism-based; details: in vivo
[11] = Apparent volume of distribution in ICR mouse at 1 mg/kg, iv by LC-MS/MS method; format: ADME, organism-based; details: in vivo, read-out: Vz
A-431 = experiment: Antitumor activity against human A431 cells xenografted in BALB/c mouse assessed as inhibition of tumor growth at 50 mg/kg, po qd for 14 consecutive days; format: functional; details: A-431, po, read-out: TGI
[12] = Half life in ICR mouse at 1 mg/kg, iv by LC-MS/MS method; format: ADME, organism-based; details: in vivo
[13] = Toxicity in human NCI-H1975 cells xenografted BALB/c mouse assessed as body weight loss at 50 mg/kg, po qd for 14 consecutive days; format: organism-based; details: in vivo
[14] = Dissociation constant, pKa of the compound by Sirius T3 based assay; format: physicochemical
Mus musculus = experiment: Inhibition of EGFR kinase domain L858R/T790M mutant phosphorylation in human NCI-H1975 cells xenografted BALB/c mouse at 50 mg/kg, po qd for 14 consecutive days by Western blot method; format: functional, organism-based
[15] = AUC (0 to infinity) in ICR mouse at 10 mg/kg, po by LC-MS/MS method; format: ADME, organism-based; parameters: dose 10 mg/kg, time infinity, route oral; details: in vivo
[16] = Thermodynamic solubility of the compound in 0.1M PBS buffer at pH 7.4 by UV-visible spectrophotometry; format: physicochemical; details: read-out: Therm_solubility
[17] = AUC (0 to t) in ICR mouse at 1 mg/kg, iv by LC-MS/MS method; format: ADME, organism-based; details: in vivo
[18] = target: Epidermal growth factor receptor (Homo sapiens, UniProt P00533, L858R/T790M); experiment: Inhibition of EGFR kinase domain L858R/T790M mutant (unknown origin) expressed using baculovirus expression system incubated for 1 hr using Poly(Glu,Tyr) 4:1 by ELISA method
Chain of Epidermal growth factor receptor (Homo sapiens, UniProt P00533, L858R/T790M) (P00533 25-1210 T790M/L858R limits assumed): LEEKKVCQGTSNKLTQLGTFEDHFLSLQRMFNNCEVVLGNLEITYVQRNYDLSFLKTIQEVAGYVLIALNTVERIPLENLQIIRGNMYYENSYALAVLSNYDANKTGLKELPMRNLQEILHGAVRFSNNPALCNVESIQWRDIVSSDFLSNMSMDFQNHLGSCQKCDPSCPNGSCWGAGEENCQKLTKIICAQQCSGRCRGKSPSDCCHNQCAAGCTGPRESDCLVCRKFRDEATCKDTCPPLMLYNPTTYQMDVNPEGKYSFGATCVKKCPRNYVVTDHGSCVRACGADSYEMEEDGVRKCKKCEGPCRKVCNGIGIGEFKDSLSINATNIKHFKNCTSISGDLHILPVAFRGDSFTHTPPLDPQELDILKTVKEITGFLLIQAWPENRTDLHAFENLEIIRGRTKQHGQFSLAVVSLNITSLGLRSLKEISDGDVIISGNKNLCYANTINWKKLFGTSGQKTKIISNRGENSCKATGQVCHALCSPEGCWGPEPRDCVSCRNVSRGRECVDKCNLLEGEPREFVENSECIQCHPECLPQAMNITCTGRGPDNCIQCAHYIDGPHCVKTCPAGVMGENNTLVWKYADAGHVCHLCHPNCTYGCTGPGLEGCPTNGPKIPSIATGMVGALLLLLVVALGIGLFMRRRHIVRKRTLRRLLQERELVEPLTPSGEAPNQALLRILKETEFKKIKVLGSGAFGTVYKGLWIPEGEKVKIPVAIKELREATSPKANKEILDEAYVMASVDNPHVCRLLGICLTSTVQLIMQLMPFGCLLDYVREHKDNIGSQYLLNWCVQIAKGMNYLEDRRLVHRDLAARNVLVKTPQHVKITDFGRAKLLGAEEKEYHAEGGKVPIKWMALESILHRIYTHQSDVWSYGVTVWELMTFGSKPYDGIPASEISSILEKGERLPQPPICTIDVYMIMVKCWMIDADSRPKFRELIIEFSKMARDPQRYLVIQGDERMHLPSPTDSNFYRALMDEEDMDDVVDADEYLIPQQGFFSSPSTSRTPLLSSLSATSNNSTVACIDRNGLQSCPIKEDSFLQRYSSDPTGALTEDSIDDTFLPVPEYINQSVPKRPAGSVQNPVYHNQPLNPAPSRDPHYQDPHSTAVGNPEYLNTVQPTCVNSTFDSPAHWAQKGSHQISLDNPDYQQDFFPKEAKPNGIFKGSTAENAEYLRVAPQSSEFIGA

[19] = Tmax in ICR mouse at 10 mg/kg, po by LC-MS/MS method; format: ADME, organism-based; details: in vivo
[20] = target: T1, Epidermal growth factor receptor; experiment: Inhibition of wild type EGFR kinase domain (unknown origin) expressed using baculovirus expression system incubated for 1 hr using Poly(Glu,Tyr) 4:1 by ELISA method
NCI-H1975 [21] = experiment: Antitumor activity against human NCI-H1975 cells xenografted in BALB/c mouse assessed as inhibition of tumor growth at 50 mg/kg, po qd for 14 consecutive days; format: functional; details: read-out: TGI
[22] = Cmax in ICR mouse at 1 mg/kg, iv by LC-MS/MS method; format: ADME, organism-based; parameters: dose 1 mg/kg, route intravenous; details: in vivo
NCI-H1975 [23] = details: Homo sapiens, at 50 mg/kg
Description: Antitumor activity against human NCI-H1975 cells xenografted in BALB/c mouse assessed as inhibition of tumor cell proliferation by measuring Ki-67 expression at 50 mg/kg, po qd for 14 consecutive days by immunohistochemistry

C=CC(=O)Nc1cccc(-n2c(=O)c(=O)n(C(C)C)c3cnc(Nc4ccc(N5CCN(C)CC5)cc4OC)nc32)c1
half-life [1]: 66 min | AUC(0-t) [2]: 673 ng·h/mL | inhibition [3]: inactive | Activity [4]: < 1% | half-life at 1 µM [5]: 51 min | Activity [6]: < 1% | Activity [7]: < 1% | bioavailability [8]: 48% | Cmax [9]: 136 ng/mL | Activity [10]: Non-Toxic | Vd [11]: 8.01 L/kg | inhibition in vivo at 50 mg/kg (A-431): 50% | half-life [12]: 48 min | Activity [13]: Non-Toxic | pKa [14]: 7.7 | inhibition (Mus musculus): Active | AUC(0-inf) [15]: 680 ng·h/mL | solubility thermodynamic [16]: 41 µg/mL (≈ 71.8 µM) | AUC(0-t) [17]: 140 ng·h/mL | IC50 [18]: 0.3 nM | Tmax [19]: 120 min | IC50 [20]: 2 nM | inhibition in vivo at 50 mg/kg (NCI-H1975 [21]): 52% | Cmax [22]: 258 ng/mL | inhibition (NCI-H1975 [23]): Active
